Experimental data: US11696913B2, “Prolonged ectoparasite-controlling agent for animal” (MITSUI CHEMICALS AGRO, INC., priority 2017, dated 2023)

Assays:
[1] = test system: Rhipicephalus (Boophilus) microplus; experiment: In vitro injection test with Rhipicephalus (Boophilus) microplus (BOOPMI Inj); conditions: 168 h, laid fertile eggs after 7 days, read-out: acaricidal activity; for pest or weed control at 0.00016 mg: dose 0.16 μg/animal injected; for pest or weed control at 0.0008 mg: dose 0.8 μg/animal injected
Method: In Vitro Injection Test with Rhipicephalus (Boophilus) Microplus (BOOPMI Inj)
To produce an appropriate mixture for injection, the test substance was dissolved and diluted in dimethyl sulphoxide to the desired concentration. 1 μl of the test mixture was injected into the abdomen of each of 5 engorged adult female cattle ticks (Rhipicephalus (Boophilus) microplus). The ticks were transferred into petri dishes and maintained in a climate-controlled room [28° C., 85% rel. hum.].
Acaricidal activity against cattle ticks was assessed after 7 days by assessment of laid fertile eggs. […] An acaricidal activity of 100% means that none of the ticks laid eggs or laid eggs were infertile; 0% means that the ticks laid eggs, and all the eggs were fertile.

Ctenocephalides felis [2] = experiment: Ctenocephalides felis in-vitro feeding test with fleas (CTECFE oral); conditions: 48 hours, read-out: insecticidal feeding activity; for pest or weed control at 0.8 ppm: dose 0.8 ppm in citrated cattle blood; for pest or weed control at 4 ppm: dose 4 ppm in citrated cattle blood
Method: Ctenocephalides felis In-Vitro Feeding Test with Fleas (CTECFE Oral)
To prepare a test blood mixture for feeding fleas, the test substance was dissolved in dimethyl sulphoxide and diluted with citrated cattle blood to the desired concentration.
To assemble the test set-up, about 20 unfed adult male and female cat fleas
(Ctenocephalides felis) were placed in a chamber which was closed at the top and bottom with gauze. A metal cylinder was sealed at one end with parafilm membrane, placed with the sealed base onto the chamber, and filled with the test blood mixture, which could be imbibed by the fleas through the parafilm membrane. The assembled test set-up was maintained at about 37° C. After 48 hours, the insecticidal feeding activity against fleas was determined. 100% means that all of the fleas were killed; 0% means that none of the fleas was killed.

Ctenocephalides felis [3] = experiment: In vitro contact test with fleas; conditions: read-out: insecticidal activity; for pest or weed control at 0.2 µg/cm2, 0.2 µg/cm2: dose 0.2 μg/cm^2, dead or moribund fleas after 48 h; for pest or weed control at 1 µg/cm2, 1 µg/cm2: dose 1 μg/cm^2, dead or moribund fleas after 48 h
Method: In Vitro Contact Tests with Fleas
In vitro contact tests with fleas were conducted with adult male and female cat fleas (Ctenocephalides felis).
(§1) To coat the test tubes, the test substance was dissolved and diluted in acetone p.a. to the desired concentration. The solution was then homogeneously applied to the inner wall and base of a glass tube by turning and rocking on an orbital shaker until complete evaporation of the solvent. For example, with a 900 ppm solution of test substance, an area-based dose of 5 μg/cm^2 was achieved.
Upon complete evaporation of the solvent, 5-10 adult cat fleas (Ctenocephalides felis) were added to each coated tube, which was then sealed with a perforated plastic lid and incubated in a horizontal position at room temperature and ambient humidity. After 48 h, insecticidal activity against fleas was determined. For this, fleas were collected to the base of the tube by knocking the tube, and the tube was allowed to stand upright. Fleas which remained motionless at the base or moved in an uncoordinated manner were considered dead or moribund, respectively.
A substance was judged to have good insecticidal activity against Ctenocephalides felis when at least 80% of the fleas were found dead or moribund at a dose of the substance of μg/cm^2. 100% insecticidal activity means that all the fleas were found dead or moribund. 0% insecticidal activity means that no fleas were found dead or moribund.

Rhipicephalus sanguineus = experiment: In vitro contact test with adult hard ticks (Rhipicephalus sanguineus); conditions: read-out: acaricidal activity; for pest or weed control at 0.2 µg/cm2, 0.2 µg/cm2: dose 0.2 μg/cm^2, 48 h; for pest or weed control at 1 µg/cm2, 1 µg/cm2: dose 1 μg/cm^2, 48 h
Method: (§2) In Vitro Contact Tests with Adult Hard Ticks
(§3) In vitro contact tests with ticks were conducted with adult males and females of Rhipicephalus sanguineus, Ixodes ricinus, or Dermacentor variabilis, or nymphs of Amblyomma americanum.
as §1, with “For the coating of” for “To coat”, “vials,” for “tubes,”, “vial” for “tube”
(§4) After the solvent was completely evaporated, 5-10 adult ticks were put in each coated test vial, which was then sealed with a perforated plastic lid and incubated in a horizontal position in the dark at room temperature and ambient humidity (Rhipicephalus sanguineus) or in a climate-controlled cabinet (Ixodes ricinus, Dermacentor variabilis, Amblyomma americanum [21° C., 85% rel. hum.]). Acaricidal activity against the respective tick species was determined after 48 h. For this, ticks were collected to the base of the test vial by gentle knocking, and test vials were then incubated on a hotplate at 45-50° C. for no longer than 5 min. Ticks which remained motionless on the base of the test vial or moved uncoordinated without deliberately climbing up to avoid the heat were considered dead or moribund, respectively.
(§5) A substance was judged to have good acaricidal activity against the respective tick species when at least 80% of ticks were found dead or moribund at a dose of the substance of g/cm^2. An acaricidal activity of 100% means all ticks were dead or moribund. An acaricidal activity of 0% means none of the ticks was found dead or moribund.

Amblyomma americanum = experiment: In vitro contact test with hard ticks (Amblyomma americanum nymphs); conditions: read-out: acaricidal activity; for pest or weed control at 1 µg/cm2, 1 µg/cm2: dose 1 μg/cm^2, 48 h
Method: as §2, §3
as §1, with “For the coating of” for “To coat”, “vials,” for “tubes,”, “vial” for “tube”
as §4, §5

Dermacentor variabilis = experiment: In vitro contact test with adult hard ticks (Dermacentor variabilis); conditions: read-out: acaricidal activity; for pest or weed control at 1 µg/cm2, 1 µg/cm2: dose 1 μg/cm^2, 48 h
Method: as §2, §3
as §1, with “For the coating of” for “To coat”, “vials,” for “tubes,”, “vial” for “tube”
as §4, §5

Structure (SMILES)	pest or weed control at 0.00016 mg [1] [%]	pest or weed control at 0.0008 mg [1] [%]	pest or weed control at 0.8 ppm (Ctenocephalides felis [2]) [%]	pest or weed control at 4 ppm (Ctenocephalides felis [2]) [%]	pest or weed control at 0.2 µg/cm2, 0.2 µg/cm2 (Ctenocephalides felis [3]) [%]	pest or weed control at 1 µg/cm2, 1 µg/cm2 (Ctenocephalides felis [3]) [%]	pest or weed control at 0.2 µg/cm2, 0.2 µg/cm2 (Rhipicephalus sanguineus) [%]	pest or weed control at 1 µg/cm2, 1 µg/cm2 (Rhipicephalus sanguineus) [%]	pest or weed control at 1 µg/cm2, 1 µg/cm2 (Amblyomma americanum) [%]	pest or weed control at 0.2 µg/cm2, 0.2 µg/cm2 (Amblyomma americanum; dose 0.2 μg/cm^2, 48 h) [%]	pest or weed control at 1 µg/cm2, 1 µg/cm2 (Dermacentor variabilis) [%]	pest or weed control at 0.04 µg/cm2, 0.04 µg/cm2 (Ctenocephalides felis [3]; dose 0.04 μg/cm^2, dead or moribund fleas after 48 h) [%]	pest or weed control at 0.04 µg/cm2, 0.04 µg/cm2 (Rhipicephalus sanguineus; dose 0.04 μg/cm^2, 48 h) [%]	pest or weed control at 32 ng ([1]; dose 0.032 μg/animal injected) [%]	pest or weed control at 0.2 µg/cm2, 0.2 µg/cm2 (Dermacentor variabilis; dose 0.2 μg/cm^2, 48 h) [%]	pest or weed control at 0.0064 ppm (Ctenocephalides felis [2]; dose 0.0064 ppm in citrated cattle blood) [%]	pest or weed control at 0.032 ppm (Ctenocephalides felis [2]; dose 0.032 ppm in citrated cattle blood) [%]	pest or weed control at 0.16 ppm (Ctenocephalides felis [2]; dose 0.16 ppm in citrated cattle blood) [%]
O=C(Nc1c(I)cc(C(F)(C(F)(F)F)C(F)(F)F)cc1C(F)(F)F)c1cccc(NC(=O)c2ccc(Cl)cc2Br)c1 [Compound 42]	100	100	95	95														
N#Cc1ccc(C(=O)Nc2cccc(C(=O)Nc3c(Br)cc(C(F)(C(F)(F)F)C(F)(F)F)cc3C(F)(F)F)c2)cc1 [Compound 3]		100		95	95	95	90	90	90									
N#Cc1ccc(C(=O)Nc2cccc(C(=O)Nc3c(I)cc(C(F)(C(F)(F)F)C(F)(F)F)cc3C(F)(F)F)c2)cc1 [Compound 19]	100	100	95	95	95	95	90	90	90									
O=C(Nc1c(I)cc(C(F)(C(F)(F)F)C(F)(F)F)cc1C(F)(F)F)c1cccc(NC(=O)c2ccc([N+](=O)[O-])cc2Cl)c1 [Compound 39]	100	100	95	95		95		90	90	90								
CN(C(=O)c1ccc([N+](=O)[O-])cc1)c1cccc(C(=O)Nc2c(Br)cc(C(F)(C(F)(F)F)C(F)(F)F)cc2C(F)(F)F)c1 [Compound 5]	100	100		95	95	95					90							
CN(C(=O)c1ccc(C#N)cc1)c1cccc(C(=O)Nc2c(Br)cc(C(F)(C(F)(F)F)C(F)(F)F)cc2C(F)(F)F)c1F [Compound 17]	100	100	95	95	95	95	90	90			90	95	90	100	90	95	95	95
CN(C(=O)c1ccc(C#N)cc1)c1cccc(C(=O)Nc2c(Br)cc(C(F)(C(F)(F)F)C(F)(F)F)cc2OC(F)(F)F)c1 [Compound 10]	100	100		95	95	95		90										
CN(C(=O)c1ccc(C#N)nc1)c1cccc(C(=O)Nc2c(Br)cc(C(F)(C(F)(F)F)C(F)(F)F)cc2C(F)(F)F)c1 [Compound 6]		100	95	95	95	95												
CN(C(=O)c1ccc(C#N)cc1)c1cccc(C(=O)Nc2c(Br)cc(C(F)(C(F)(F)F)C(F)(F)F)cc2C(F)(F)F)c1 [Compound 4]		100			95	95			90									
